# Data: patent US4340609A, “Amidinourea derivative veterinary compositions for suppression of parasitemia” (William H. Rorer, Inc., priority 1980, dated 1982)
# Where two headings read alike, the source gives them in different places.
# Test system: plasmodium berghei
# Assay: suppression of parasitemia in mice infected with plasmodium berghei
# Type: in vivo
# Settings: for ED50: Plasmodium berghei, sc; for ED50 / Mean % Parasitemia / Mean % Suppression / % died: mice
# Method: Five representative amidinoureas were tested in mice infected with plasmodium berghei. The five compounds tested are the following:
# Groups of 10 mice each were used in seven doses totaling 70 mice per compound. The protozoal infection was induced by intraperitoneal injection of 5,000,000 parasitized blood cells from a donor. The compound was administered subcutaneously in doses ranging from 0.15 to 10 mg. per kg., suspended on 0.5% methacel solution (doses expressed as base). The compound was repeatedly injected on the day of inoculation (day 1), day 2 and day 3. Blood smears were performed on days 4, 5, 6 and 10.
# Untreated control but infected mice developed fulminating parasitemia of as high as 35% on day 10 and deaths occurred from day 12 to 14.
# [1] = s.c., 1.0 mg/kg on days 1-3, 4th day
# [2] = s.c., 1.0 mg/kg on days 1-3, 5th day
# [3] = s.c., 1.0 mg/kg on days 1-3, 6th day
# [4] = s.c., 1.0 mg/kg on days 1-3, 10th day
# [5] = s.c., 2.0 mg/kg on days 1-3, 4th day
# [6] = s.c., 2.0 mg/kg on days 1-3, 5th day
# [7] = s.c., 2.0 mg/kg on days 1-3, 6th day
# [8] = s.c., 2.0 mg/kg on days 1-3, 10th day
# [9] = s.c., 10.0 mg/kg on days 1-3, 4th day
# [10] = s.c., 10.0 mg/kg on days 1-3, 5th day
# [11] = s.c., 10.0 mg/kg on days 1-3, 6th day
# [12] = s.c., 10.0 mg/kg on days 1-3, 10th day
# [13] = s.c., .15 mg/kg on days 1-3, 4th day
# [14] = s.c., .15 mg/kg on days 1-3, 5th day
# [15] = s.c., .15 mg/kg on days 1-3, 6th day
# [16] = s.c., .15 mg/kg on days 1-3, 10th day
# [17] = s.c., .20 mg/kg on days 1-3, 4th day
# [18] = s.c., .20 mg/kg on days 1-3, 5th day
# [19] = s.c., .20 mg/kg on days 1-3, 6th day
# [20] = s.c., .20 mg/kg on days 1-3, 10th day
# [21] = s.c., .30 mg/kg on days 1-3, 4th day
# [22] = s.c., .30 mg/kg on days 1-3, 5th day
# [23] = s.c., .30 mg/kg on days 1-3, 6th day
# [24] = s.c., .30 mg/kg on days 1-3, 10th day
# [25] = s.c., .50 mg/kg on days 1-3, 4th day
# [26] = s.c., .50 mg/kg on days 1-3, 5th day
# [27] = s.c., .50 mg/kg on days 1-3, 6th day
# [28] = s.c., .50 mg/kg on days 1-3, 10th day
compound,measurement,setting,value
"CNC(=N)NC(=O)Nc1c(C)cc(Br)cc1Cl.Cl [Compound C, 1-(4-bromo-2-chloro-6-methylphenyl)-3-methylamidinourea hydrochloride]",ED50,"96 h, s.c., levels of parasitemia, 4th day, read-out: SED50 (Suppressant Effective Dose50)",1.12 mg/kg
same,ED50,"120 h, s.c., levels of parasitemia, 5th day, read-out: SED50 (Suppressant Effective Dose50)",1.12 mg/kg
same,ED50,"144 h, s.c., levels of parasitemia, 6th day, read-out: SED50 (Suppressant Effective Dose50)",1.39 mg/kg
same,ED50,"240 h, s.c., levels of parasitemia, 10th day, read-out: SED50 (Suppressant Effective Dose50)",3.99 mg/kg
same,ED50,"day 4 to day 10, read-out: HIGHEST SED50",3.99 mg/kg
same,ED50,"day 4 to day 10, read-out: LOWEST SED50",1.12 mg/kg
same,FACTOR (HIGHEST SED50 ÷ LOWEST SED50),"factor of change, day 4 to day 10, duration of action",3.56
same,Mean % Parasitemia,[1],2.75%
same,Mean % Suppression,[1],47.6%
same,Mean % Parasitemia,[2],3.60%
same,Mean % Suppression,[2],50.7%
same,Mean % Parasitemia,[3],5.20%
same,Mean % Suppression,[3],44.1%
same,Mean % Parasitemia,[4],28.30%
same,Mean % Suppression,[4],20.3%
same,% died,"s.c., 1.0 mg/kg on days 1-3, 12th day",20%
same,% died,"s.c., 1.0 mg/kg on days 1-3, 13th day",60%
same,% died,"s.c., 1.0 mg/kg on days 1-3, 14th day",60%
same,Mean % Parasitemia,[5],1.50%
same,Mean % Suppression,[5],71.4%
same,Mean % Parasitemia,[6],1.90%
same,Mean % Suppression,[6],74.0%
same,Mean % Parasitemia,[7],4.10%
same,Mean % Suppression,[7],56.0%
same,Mean % Parasitemia,[8],24.28%
same,Mean % Suppression,[8],31.6%
same,% died,"s.c., 2.0 mg/kg on days 1-3, 12th day",20%
same,% died,"s.c., 2.0 mg/kg on days 1-3, 13th day",20%
same,% died,"s.c., 2.0 mg/kg on days 1-3, 14th day",40%
same,Mean % Parasitemia,[9],0%
same,Mean % Suppression,[9],100.0%
same,Mean % Parasitemia,[10],0%
same,Mean % Suppression,[10],100.0%
same,Mean % Parasitemia,[11],0%
same,Mean % Suppression,[11],100.0%
same,Mean % Parasitemia,[12],0%
same,Mean % Suppression,[12],100.0%
same,% died,"s.c., 10.0 mg/kg on days 1-3, 12th day",0%
same,% died,"s.c., 10.0 mg/kg on days 1-3, 13th day",0%
same,% died,"s.c., 10.0 mg/kg on days 1-3, 14th day",0%
same,Mean % Parasitemia,[13],5.00%
same,Mean % Suppression,[13],4.8%
same,Mean % Parasitemia,[14],7.20%
same,Mean % Suppression,[14],1.4%
same,Mean % Parasitemia,[15],9.20%
same,Mean % Suppression,[15],1.1%
same,Mean % Parasitemia,[16],35.40%
same,Mean % Suppression,[16],0.3%
same,% died,"s.c., .15 mg/kg on days 1-3, 12th day",20%
same,% died,"s.c., .15 mg/kg on days 1-3, 13th day",40%
same,% died,"s.c., .15 mg/kg on days 1-3, 14th day",80%
same,Mean % Parasitemia,[17],5.00%
same,Mean % Suppression,[17],4.8%
same,Mean % Parasitemia,[18],6.25%
same,Mean % Suppression,[18],14.4%
same,Mean % Parasitemia,[19],9.10%
same,Mean % Suppression,[19],2.2%
same,Mean % Parasitemia,[20],35.10%
same,Mean % Suppression,[20],1.1%
same,% died,"s.c., .20 mg/kg on days 1-3, 12th day",40%
same,% died,"s.c., .20 mg/kg on days 1-3, 13th day",60%
same,% died,"s.c., .20 mg/kg on days 1-3, 14th day",60%
same,Mean % Parasitemia,[21],4.75%
same,Mean % Suppression,[21],9.5%
same,Mean % Parasitemia,[22],6.00%
same,Mean % Suppression,[22],17.8%
same,Mean % Parasitemia,[23],8.30%
same,Mean % Suppression,[23],10.8%
same,Mean % Parasitemia,[24],33.40%
same,Mean % Suppression,[24],5.9%
same,% died,"s.c., .30 mg/kg on days 1-3, 12th day",20%
same,% died,"s.c., .30 mg/kg on days 1-3, 13th day",40%
same,% died,"s.c., .30 mg/kg on days 1-3, 14th day",80%
same,Mean % Parasitemia,[25],4.75%
same,Mean % Suppression,[25],9.5%
same,Mean % Parasitemia,[26],5.20%
same,Mean % Suppression,[26],28.8%
same,Mean % Parasitemia,[27],7.00%
same,Mean % Suppression,[27],24.7%
same,Mean % Parasitemia,[28],31.40%
same,Mean % Suppression,[28],11.5%
same,% died,"s.c., .50 mg/kg on days 1-3, 12th day",0%
same,% died,"s.c., .50 mg/kg on days 1-3, 13th day",20%
same,% died,"s.c., .50 mg/kg on days 1-3, 14th day",80%
